This passage reports pH of solution and pKa results from patent publication US20230130132A1, “PHARMACEUTICAL COMPOSITIONS COMPRISING AMPHIPHILIC PEPTIDES AND METHODS OF USE THEREOF” (BONE SCI. BIO LTD., priority 2020, published 2023).

No end group written: not given here.

The nature of one series: pH of the composition. It is filed as physicochemical. To be noted: 5% w/v in deionized water, clear solution.
Series [1] is described as follows: PFD5 sodium dissolved in HCl: peptide to acid mole ratio for stable hydrogel, pKa. It counts as physicochemical. To be noted: aqueous HCl solution (hydrogel); 1% (w/v) PFD5; pH at which half of the Asp residues are assumed protonated. The method, then:
Different mole ratios of PFD5 sodium to HCl were generated by dissolving the peptide in an HCl solution using a magnetic stirrer. Following mixing for a few minutes, hydrogel formation was tested (Table 2 and FIG. 1A-1B). […] At a 1:6 ratio, the stable hydrogel appeared opaquer.
At a 1:4 ratio, the stable hydrogel appeared opaquer.
At this peptide concentration, the mole ratio of the peptide to acid was determined to be 1:1.67 to afford a stable clear hydrogel (FIG. 1B).

In the case of Doxycycline hyclate, in the series “pH of the composition”, the pH of solution is on record as 1.93. One may read the pKa as the negative logarithm of the acid dissociation constant. On to “PDFDFDFDFDFDP [PFD5, Pro-(Asp-Phe)5-Asp-Pro]”, for which, in series [1], the pKa is about 5.95.
